Each compound was assayed on myeloid leukemia patient primary cells Pat.5 (assay: cell viability (% survival relative to DMSO control); higher = less cytotoxic). Settings: 1 nM; 72 h.
Summary of the method: (§1)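 Thawed mononuclear cells from AML or CML patients were purified on Ficoll and cultured for 72 h in RPMI 1640 with 10% FBS, at 10,000 cells/well, on 384-well plates carrying 70 pre-printed compounds at 1–10,000 nM in five tenfold steps, in duplicate. Viability came from CellTiter-Glo, normalised against DMSO and against 10 μM proteasome inhibitor. Any area under the curve given was derived from log-logistic curve fits in the drc and PharmacoGx R packages, and these fits had four parameters.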

Row | SMILES | cell viability [%]
1 | CCCCCCCCCCCCC/C=C/[C@@H](O)[C@H](CO)N(C)C [N,N-Dimethylsphingosine] | 75.5
2 | Nc1nc(O)c2c(CCc3ccc(C(=O)N[C@@H](CCC(=O)O)C(=O)O)cc3)c[nH]c2n1 [Pemetrexed] | > 100
3 | C=C1NC(=O)c2cc(CN(C)c3ccc(C(=O)N[C@@H](CCC(=O)O)C(=O)O)s3)ccc2N1 [Raltitrexed] | 43.3

Same assay, conditions: 10 nM; 72 h

Row | SMILES | cell viability [%]
4 | NS(=O)(=O)c1ccc(S(=O)(=O)Nc2cccc3c(Cl)c[nH]c23)cc1 [Indisulam] | 70.8
5 | Cc1nnc(-c2ccc(N3CCC(Oc4ccccc4C(F)(F)F)CC3)nn2)s1 [MF-438] | 93.8
6 | CCCCCCCCCCCCC/C=C/[C@@H](O)[C@H](CO)N(C)C [N,N-Dimethylsphingosine] | 57.6
7 | Nc1nc(O)c2c(CCc3ccc(C(=O)N[C@@H](CCC(=O)O)C(=O)O)cc3)c[nH]c2n1 [Pemetrexed] | 88.1
8 | C=C1NC(=O)c2cc(CN(C)c3ccc(C(=O)N[C@@H](CCC(=O)O)C(=O)O)s3)ccc2N1 [Raltitrexed] | 90.4

Same assay, conditions: 100 nM; 72 h

Row | SMILES | cell viability [%]
9 | NS(=O)(=O)c1ccc(S(=O)(=O)Nc2cccc3c(Cl)c[nH]c23)cc1 [Indisulam] | 62.1
10 | Cc1nnc(-c2ccc(N3CCC(Oc4ccccc4C(F)(F)F)CC3)nn2)s1 [MF-438] | 67.7
11 | CCCCCCCCCCCCC/C=C/[C@@H](O)[C@H](CO)N(C)C [N,N-Dimethylsphingosine] | 10.1
12 | Nc1nc(O)c2c(CCc3ccc(C(=O)N[C@@H](CCC(=O)O)C(=O)O)cc3)c[nH]c2n1 [Pemetrexed] | 43.2
13 | C=C1NC(=O)c2cc(CN(C)c3ccc(C(=O)N[C@@H](CCC(=O)O)C(=O)O)s3)ccc2N1 [Raltitrexed] | > 100

Same assay, conditions: 1000 nM; 72 h

Row | SMILES | cell viability [%]
14 | NS(=O)(=O)c1ccc(S(=O)(=O)Nc2cccc3c(Cl)c[nH]c23)cc1 [Indisulam] | 17.9
15 | Cc1nnc(-c2ccc(N3CCC(Oc4ccccc4C(F)(F)F)CC3)nn2)s1 [MF-438] | 46.4
16 | CCCCCCCCCCCCC/C=C/[C@@H](O)[C@H](CO)N(C)C [N,N-Dimethylsphingosine] | 2.01
17 | Nc1nc(O)c2c(CCc3ccc(C(=O)N[C@@H](CCC(=O)O)C(=O)O)cc3)c[nH]c2n1 [Pemetrexed] | 83.4
18 | C=C1NC(=O)c2cc(CN(C)c3ccc(C(=O)N[C@@H](CCC(=O)O)C(=O)O)s3)ccc2N1 [Raltitrexed] | 87

Same assay, conditions: 10000 nM; 72 h

Row | SMILES | cell viability [%]
19 | NS(=O)(=O)c1ccc(S(=O)(=O)Nc2cccc3c(Cl)c[nH]c23)cc1 [Indisulam] | 12.4
20 | Cc1nnc(-c2ccc(N3CCC(Oc4ccccc4C(F)(F)F)CC3)nn2)s1 [MF-438] | 27.4
21 | CCCCCCCCCCCCC/C=C/[C@@H](O)[C@H](CO)N(C)C [N,N-Dimethylsphingosine] | 0.265
22 | Nc1nc(O)c2c(CCc3ccc(C(=O)N[C@@H](CCC(=O)O)C(=O)O)cc3)c[nH]c2n1 [Pemetrexed] | 14.5
23 | C=C1NC(=O)c2cc(CN(C)c3ccc(C(=O)N[C@@H](CCC(=O)O)C(=O)O)s3)ccc2N1 [Raltitrexed] | 92.7

The compounds below were run on myeloid leukemia patient primary cells Pat.15 in the same assay as above. Settings: 1 nM; 72 h.
Summary of the method: as §1

Row | SMILES | cell viability [%]
24 | NS(=O)(=O)c1ccc(S(=O)(=O)Nc2cccc3c(Cl)c[nH]c23)cc1 [Indisulam] | 90.2
25 | Cc1nnc(-c2ccc(N3CCC(Oc4ccccc4C(F)(F)F)CC3)nn2)s1 [MF-438] | 97.4
26 | CCCCCCCCCCCCC/C=C/[C@@H](O)[C@H](CO)N(C)C [N,N-Dimethylsphingosine] | 93.8
27 | Nc1nc(O)c2c(CCc3ccc(C(=O)N[C@@H](CCC(=O)O)C(=O)O)cc3)c[nH]c2n1 [Pemetrexed] | 96.9
28 | C=C1NC(=O)c2cc(CN(C)c3ccc(C(=O)N[C@@H](CCC(=O)O)C(=O)O)s3)ccc2N1 [Raltitrexed] | 81.4

Same assay, conditions: 10 nM; 72 h

Row | SMILES | cell viability [%]
29 | NS(=O)(=O)c1ccc(S(=O)(=O)Nc2cccc3c(Cl)c[nH]c23)cc1 [Indisulam] | 90.8
30 | Cc1nnc(-c2ccc(N3CCC(Oc4ccccc4C(F)(F)F)CC3)nn2)s1 [MF-438] | 89.5
31 | CCCCCCCCCCCCC/C=C/[C@@H](O)[C@H](CO)N(C)C [N,N-Dimethylsphingosine] | 95.6
32 | Nc1nc(O)c2c(CCc3ccc(C(=O)N[C@@H](CCC(=O)O)C(=O)O)cc3)c[nH]c2n1 [Pemetrexed] | 98.4
33 | C=C1NC(=O)c2cc(CN(C)c3ccc(C(=O)N[C@@H](CCC(=O)O)C(=O)O)s3)ccc2N1 [Raltitrexed] | 90

Same assay, conditions: 100 nM; 72 h

Row | SMILES | cell viability [%]
34 | NS(=O)(=O)c1ccc(S(=O)(=O)Nc2cccc3c(Cl)c[nH]c23)cc1 [Indisulam] | 75.9
35 | Cc1nnc(-c2ccc(N3CCC(Oc4ccccc4C(F)(F)F)CC3)nn2)s1 [MF-438] | 98.7
36 | CCCCCCCCCCCCC/C=C/[C@@H](O)[C@H](CO)N(C)C [N,N-Dimethylsphingosine] | 78.6
37 | Nc1nc(O)c2c(CCc3ccc(C(=O)N[C@@H](CCC(=O)O)C(=O)O)cc3)c[nH]c2n1 [Pemetrexed] | > 100
38 | C=C1NC(=O)c2cc(CN(C)c3ccc(C(=O)N[C@@H](CCC(=O)O)C(=O)O)s3)ccc2N1 [Raltitrexed] | 89.2

Same assay, conditions: 1000 nM; 72 h

Row | SMILES | cell viability [%]
39 | NS(=O)(=O)c1ccc(S(=O)(=O)Nc2cccc3c(Cl)c[nH]c23)cc1 [Indisulam] | 79.2
40 | Cc1nnc(-c2ccc(N3CCC(Oc4ccccc4C(F)(F)F)CC3)nn2)s1 [MF-438] | 86.9
41 | CCCCCCCCCCCCC/C=C/[C@@H](O)[C@H](CO)N(C)C [N,N-Dimethylsphingosine] | 85.5
42 | Nc1nc(O)c2c(CCc3ccc(C(=O)N[C@@H](CCC(=O)O)C(=O)O)cc3)c[nH]c2n1 [Pemetrexed] | 63.2
43 | C=C1NC(=O)c2cc(CN(C)c3ccc(C(=O)N[C@@H](CCC(=O)O)C(=O)O)s3)ccc2N1 [Raltitrexed] | 95.1

Same assay, conditions: 10000 nM; 72 h

Row | SMILES | cell viability [%]
44 | NS(=O)(=O)c1ccc(S(=O)(=O)Nc2cccc3c(Cl)c[nH]c23)cc1 [Indisulam] | 44.1
45 | Cc1nnc(-c2ccc(N3CCC(Oc4ccccc4C(F)(F)F)CC3)nn2)s1 [MF-438] | 69.8
46 | CCCCCCCCCCCCC/C=C/[C@@H](O)[C@H](CO)N(C)C [N,N-Dimethylsphingosine] | 10.4
47 | Nc1nc(O)c2c(CCc3ccc(C(=O)N[C@@H](CCC(=O)O)C(=O)O)cc3)c[nH]c2n1 [Pemetrexed] | 94.2
48 | C=C1NC(=O)c2cc(CN(C)c3ccc(C(=O)N[C@@H](CCC(=O)O)C(=O)O)s3)ccc2N1 [Raltitrexed] | > 100

The compounds below were run on myeloid leukemia patient primary cells Pat.11 in the same assay as above. Settings: 1 nM; 72 h.
Summary of the method: as §1

Row | SMILES | cell viability [%]
49 | NS(=O)(=O)c1ccc(S(=O)(=O)Nc2cccc3c(Cl)c[nH]c23)cc1 [Indisulam] | 93.9
50 | Cc1nnc(-c2ccc(N3CCC(Oc4ccccc4C(F)(F)F)CC3)nn2)s1 [MF-438] | 94
51 | CCCCCCCCCCCCC/C=C/[C@@H](O)[C@H](CO)N(C)C [N,N-Dimethylsphingosine] | 94.6
52 | Nc1nc(O)c2c(CCc3ccc(C(=O)N[C@@H](CCC(=O)O)C(=O)O)cc3)c[nH]c2n1 [Pemetrexed] | > 100
53 | C=C1NC(=O)c2cc(CN(C)c3ccc(C(=O)N[C@@H](CCC(=O)O)C(=O)O)s3)ccc2N1 [Raltitrexed] | 93.9

Same assay, conditions: 10 nM; 72 h

Row | SMILES | cell viability [%]
54 | NS(=O)(=O)c1ccc(S(=O)(=O)Nc2cccc3c(Cl)c[nH]c23)cc1 [Indisulam] | > 100
55 | Cc1nnc(-c2ccc(N3CCC(Oc4ccccc4C(F)(F)F)CC3)nn2)s1 [MF-438] | 96.6
56 | CCCCCCCCCCCCC/C=C/[C@@H](O)[C@H](CO)N(C)C [N,N-Dimethylsphingosine] | > 100
57 | Nc1nc(O)c2c(CCc3ccc(C(=O)N[C@@H](CCC(=O)O)C(=O)O)cc3)c[nH]c2n1 [Pemetrexed] | > 100
58 | C=C1NC(=O)c2cc(CN(C)c3ccc(C(=O)N[C@@H](CCC(=O)O)C(=O)O)s3)ccc2N1 [Raltitrexed] | 97.3

Same assay, conditions: 100 nM; 72 h

Row | SMILES | cell viability [%]
59 | NS(=O)(=O)c1ccc(S(=O)(=O)Nc2cccc3c(Cl)c[nH]c23)cc1 [Indisulam] | > 100
60 | Cc1nnc(-c2ccc(N3CCC(Oc4ccccc4C(F)(F)F)CC3)nn2)s1 [MF-438] | > 100

Source: the supplement of paper PMC8671470
